# From ChEMBL document CHEMBL1146251, “Synthesis and SAR of p38alpha MAP kinase inhibitors based on heterobicyclic scaffolds” (Bioorg Med Chem Lett, 2007)
# Biological target: Mitogen-activated protein kinase 14 (Homo sapiens, UniProt Q16539)
# Test: Inhibition of p38-alpha MAP kinase
# Sequence of Mitogen-activated protein kinase 14 (Q16539 whole entry): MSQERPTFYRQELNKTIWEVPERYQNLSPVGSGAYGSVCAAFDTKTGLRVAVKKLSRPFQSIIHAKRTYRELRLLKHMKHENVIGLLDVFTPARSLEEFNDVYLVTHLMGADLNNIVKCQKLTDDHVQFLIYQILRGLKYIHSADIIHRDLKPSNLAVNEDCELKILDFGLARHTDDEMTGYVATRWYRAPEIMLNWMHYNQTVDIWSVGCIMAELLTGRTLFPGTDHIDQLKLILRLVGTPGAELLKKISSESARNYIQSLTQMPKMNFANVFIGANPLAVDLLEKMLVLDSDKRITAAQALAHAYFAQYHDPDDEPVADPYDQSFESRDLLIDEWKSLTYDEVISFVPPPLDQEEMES
row,IC50 [nM],Compound
1,50,Cn1ccc2cc(C(=O)N3CCn4c(cnc4-c4ccc(F)cc4F)C3)c(Cl)cc21
2,593,O=C(c1ccc(F)cc1F)N1CCn2c(cnc2-c2ccc(F)cc2F)C1
3,14,CN(C)C(=O)C(=O)c1cn(C)c2cc(Cl)c(C(=O)N3CCn4c(cnc4-c4ccc(F)cc4F)C3)cc12
4,37,CN(C)C(=O)C(=O)c1c[nH]c2ccc(C(=O)N3CCc4c(cnn4-c4ccccc4Cl)C3)cc12
5,195,CN(C)C(=O)C(=O)c1cn(C)c2cc(Cl)c(C(=O)N3CCc4c(ncnc4-c4ccc(F)cc4F)C3)cc12
6,38,COc1cc2c(ccn2C)cc1C(=O)N1CCn2c(cnc2-c2ccc(F)cc2F)C1
7,164,COc1nc2[nH]ccc2cc1C(=O)N1CCn2c(cnc2-c2ccc(F)cc2F)C1
8,29,COc1nc2[nH]cc(C(=O)C(=O)N(C)C)c2cc1C(=O)N1CCc2c(cnn2-c2ccccc2Cl)C1
9,167,O=C(c1c(F)cccc1F)N1CCn2c(cnc2-c2ccc(F)cc2F)C1
10,13,COc1cc2c(cc1C(=O)N1CCn3c(cnc3-c3ccc(F)cc3F)C1)c(C(=O)C(=O)N(C)C)cn2C
11,29,COc1nc2[nH]cc(C(=O)C(=O)N(C)C)c2cc1C(=O)N1CCn2c(cnc2-c2ccc(F)cc2F)C1
12,11,CN(C)C(=O)C(=O)c1c[nH]c2cc(Cl)c(C(=O)N3CCn4c(cnc4-c4ccc(F)cc4F)C3)cc12
13,33,CN(C)C(=O)C(=O)c1cn(C)c2cc(Cl)c(C(=O)N3CCc4c(cnn4-c4ccccc4Cl)C3)cc12
14,16,COc1nc2c(cc1C(=O)N1CCn3c(cnc3-c3ccc(F)cc3F)C1)c(C(=O)C(=O)N1CCC(O)C1)cn2C (racemic)

# The next lines start with the compound.
row,Compound,IC50 [nM]
1,CC(C)n1ccc2cc(C(=O)N3CCc4c(cnn4-c4ccccc4Cl)C3)ccc21,39
2,O=C(c1c(F)cccc1F)N1CCc2c(cnn2-c2ccccc2Cl)C1,68
3,O=C(c1cc2ccccc2[nH]1)N1CCc2c(cnn2-c2ccccc2Cl)C1,154
4,Cn1cc(C(=O)N2CCc3c(cnn3-c3ccccc3Cl)C2)c2ccccc21,40
5,O=C(c1ccc2cc[nH]c2c1)N1CCc2c(cnn2-c2ccccc2Cl)C1,40
6,Cn1ccc2cc(C(=O)N3CCc4c(cnn4-c4ccccc4Cl)C3)ccc21,30
7,O=C(c1c[nH]c2ccccc12)N1CCc2c(cnn2-c2ccccc2Cl)C1,55
8,O=C(c1cccc2[nH]ccc12)N1CCc2c(cnn2-c2ccccc2Cl)C1,37
9,O=C(c1c(F)cccc1F)N1CCc2c(cnn2-c2ccc(F)cc2Cl)C1,97
10,Cn1ccc2cc(C(=O)N3CCc4c(cnn4-c4ccccc4Cl)C3)c(Cl)cc21,26
11,COc1nc2[nH]ccc2cc1C(=O)N1CCc2c(cnn2-c2ccccc2Cl)C1,137
12,O=C(c1c(Cl)cccc1Cl)N1CCc2c(cnn2-c2ccccc2Cl)C1,112
